Results reported in patent US11826351B2, “Compounds useful as kinase inhibitors” (Loxo Oncology, Inc., priority 2015, dated 2023).

Tests used:
[1] = system: OCI-Ly10 human DLBCL cells; assay: OCI-Ly10 anti-proliferative activity (Resazurin); assay type: cell-based; conditions: Homo sapiens, OCI-Ly10, 72 h, OCI-Ly10 cells, 72 h compound treatment, Resazurin; read-out: Proliferation Assay OCI-Ly10-20% FBS
Method in brief: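 A separate untreated plate gave the Day 0 reading, measured by Resazurin fluorescence at 590 nm after 5 h. The average Day 0 value was subtracted from each treated well, and results were expressed as percent of DMSO control. IC50 values came from a log[Inhibitor] vs response Variable Slope fit in Graphpad prism.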

[2] = target: T1, Recombinant BTK^WT kinase (Homo sapiens, UniProt Q06187); assay: BTK WT binding affinity (LanthaScreen TR-FRET); conditions: Kinase Tracer 236, 5 h incubation
T1 construct: purchased Invitrogen
Method in brief: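 IC50 obtained by variable-slope fit of TR-FRET signal (ex 340 nm; em 615 and 665 nm) versus inhibitor concentration. Reaction held for 5 h in LanthaScreen Kinase Buffer A with 2.5 nM His-tagged BTK^WT, 15 nM Kinase Tracer 236 and 2 nM Eu anti-His antibody.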

Recombinant EGFR = target: T2, Recombinant EGFR (Homo sapiens, UniProt P00533); assay: EGFR binding affinity (LanthaScreen TR-FRET); conditions: Kinase Tracer 199, 5 h incubation
T2 construct: purchased Invitrogen
Method in brief: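 Compounds were titrated against recombinant EGFR and binding was followed by LanthaScreen time-resolved FRET.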

[3] = target: T3, Recombinant BTK^C481S kinase (Homo sapiens, UniProt Q06187, C481S); assay: BTK C481S binding affinity (LanthaScreen TR-FRET); conditions: Kinase Tracer 236, 5 h incubation
T3 construct: purchased SignalChem
Method in brief: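 BTK C481S tracer-displacement TR-FRET: 5 nM His-tagged kinase, 2 nM Eu anti-His antibody and 30 nM Kinase Tracer 236 incubated with titrated inhibitor for 5 h in Kinase Buffer A. Read at 340 nm excitation, 615/665 nm emission; IC50 from variable-slope log[inhibitor]–response fit.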

T2 sequence (P00533 25-1210): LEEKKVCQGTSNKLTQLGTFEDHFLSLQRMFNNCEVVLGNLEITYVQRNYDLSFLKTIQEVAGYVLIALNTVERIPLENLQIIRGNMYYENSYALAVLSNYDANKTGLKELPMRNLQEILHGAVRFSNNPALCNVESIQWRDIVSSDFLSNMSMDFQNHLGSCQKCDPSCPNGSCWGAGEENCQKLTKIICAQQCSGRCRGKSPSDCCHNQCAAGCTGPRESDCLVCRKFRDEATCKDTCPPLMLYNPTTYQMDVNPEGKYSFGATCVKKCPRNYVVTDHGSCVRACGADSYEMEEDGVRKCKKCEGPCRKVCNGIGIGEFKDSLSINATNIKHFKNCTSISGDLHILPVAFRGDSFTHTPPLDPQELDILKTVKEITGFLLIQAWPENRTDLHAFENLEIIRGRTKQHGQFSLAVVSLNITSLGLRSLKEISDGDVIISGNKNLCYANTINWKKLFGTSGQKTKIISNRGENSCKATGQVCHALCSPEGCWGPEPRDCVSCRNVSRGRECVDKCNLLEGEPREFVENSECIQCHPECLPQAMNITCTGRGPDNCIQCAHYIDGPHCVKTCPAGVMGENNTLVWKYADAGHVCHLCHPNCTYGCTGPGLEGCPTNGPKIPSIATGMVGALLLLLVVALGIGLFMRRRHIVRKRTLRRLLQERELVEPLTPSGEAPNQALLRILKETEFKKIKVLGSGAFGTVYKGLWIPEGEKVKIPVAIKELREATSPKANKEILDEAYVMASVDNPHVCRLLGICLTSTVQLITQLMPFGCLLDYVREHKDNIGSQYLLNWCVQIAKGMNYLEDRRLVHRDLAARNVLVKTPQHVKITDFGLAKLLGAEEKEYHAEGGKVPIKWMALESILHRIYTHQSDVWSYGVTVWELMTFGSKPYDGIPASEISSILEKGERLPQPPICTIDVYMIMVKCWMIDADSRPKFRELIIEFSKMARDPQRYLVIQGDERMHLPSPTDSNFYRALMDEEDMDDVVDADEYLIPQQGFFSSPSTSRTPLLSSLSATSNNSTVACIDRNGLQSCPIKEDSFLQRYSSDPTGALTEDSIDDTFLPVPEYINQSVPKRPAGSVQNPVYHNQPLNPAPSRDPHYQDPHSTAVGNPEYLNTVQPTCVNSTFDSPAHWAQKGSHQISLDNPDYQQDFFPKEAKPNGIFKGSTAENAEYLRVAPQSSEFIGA
T3 sequence (Q06187 whole entry C481S): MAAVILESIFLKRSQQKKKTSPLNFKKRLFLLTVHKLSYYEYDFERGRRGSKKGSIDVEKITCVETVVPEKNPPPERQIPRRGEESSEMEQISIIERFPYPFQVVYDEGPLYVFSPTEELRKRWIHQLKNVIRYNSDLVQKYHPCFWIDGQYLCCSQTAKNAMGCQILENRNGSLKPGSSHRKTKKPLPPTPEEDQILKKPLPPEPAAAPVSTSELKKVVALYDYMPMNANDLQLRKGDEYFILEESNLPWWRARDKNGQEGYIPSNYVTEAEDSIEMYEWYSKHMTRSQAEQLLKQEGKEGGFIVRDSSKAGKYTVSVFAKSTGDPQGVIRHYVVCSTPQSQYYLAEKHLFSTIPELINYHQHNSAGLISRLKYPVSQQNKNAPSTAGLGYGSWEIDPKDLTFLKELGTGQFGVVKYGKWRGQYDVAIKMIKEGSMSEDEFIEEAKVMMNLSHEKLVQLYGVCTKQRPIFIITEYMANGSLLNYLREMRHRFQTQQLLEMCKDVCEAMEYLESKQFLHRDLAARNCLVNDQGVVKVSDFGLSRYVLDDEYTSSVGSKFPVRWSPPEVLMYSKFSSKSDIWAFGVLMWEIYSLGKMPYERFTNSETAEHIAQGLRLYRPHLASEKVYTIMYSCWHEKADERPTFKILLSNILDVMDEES
T1 sequence (Q06187 whole entry): as the sequence (Q06187 whole entry C481S) above, with S481C counted along it

| IC50 [1] | IC50 [2] | IC50 (Recombinant EGFR) | IC50 [3] | SMILES |
| --- | --- | --- | --- | --- |
| 100 to 1000 nM | < 10 nM | 1 to 10 µM | < 10 nM | COc1ccc(F)cc1C(=O)NCc1ccc(-c2nn([C@@H]3CCCOC3)c(N)c2C(N)=O)cc1 [Example 183, 5-amino-3-[4-[[(5-fluoro-2-methoxy-benzoyl)amino]methyl]phenyl]-1-[(3R)-tetrahydropyran-3-yl]pyrazole-4-carboxamide] |
| 10 to 100 nM | < 10 nM | 1 to 10 µM | < 10 nM | COc1ccc(F)cc1C(=O)NCc1ccc(-c2nn(CC(F)(F)F)c(N)c2C(N)=O)cc1 [Example 122, 5-amino-3-[4-[[(5-fluoro-2-methoxy-benzoyl)amino]methyl]phenyl]-1-(2,2,2-trifluoroethyl)pyrazole-4-carboxamide] |
| 10 to 100 nM | < 10 nM | 0.1 to 1 µM | < 10 nM | CCOC(=O)C1CCC(n2nc(-c3ccc(CNC(=O)c4ccccc4OC)cc3)c(C(N)=O)c2N)CC1 (centres unmarked) [Example 40, Ethyl 4-[5-amino-4-carbamoyl-3-[4-[[(2-methoxybenzoyl)amino]methyl]phenyl]pyrazol-1-yl]cyclohexanecarboxylate] |
| 1000 to 10000 nM | 10 to 100 nM | 1 to 10 µM | < 10 nM | COc1ccccc1C(=O)NCc1ccc(-c2nn(C(CO)CCl)c(N)c2C(N)=O)cc1 (centres unmarked) [Example 66, 5-amino-1-[1-(chloromethyl)-2-hydroxy-ethyl]-3-[4-[[(2-methoxybenzoyl)amino]methyl]phenyl]pyrazole-4-carboxamide] |
| 1000 to 10000 nM | 10 to 100 nM | > 10 µM | < 10 nM | COc1ccccc1C(=O)NCc1ccc(-c2nn(C(C)CO)c(N)c2C(N)=O)cc1 (centres unmarked) [Example 135, 5-amino-1-(2-hydroxy-1-methyl-ethyl)-3-[4-[[(2-methoxybenzoyl)amino]methyl]phenyl]pyrazole-4-carboxamide] |
| 100 to 1000 nM | 10 to 100 nM | > 10 µM | < 10 nM | COc1ccccc1C(=O)NCc1ccc(-c2nn(-c3ccc(C(F)(F)F)cn3)c(N)c2C(N)=O)cc1 [Example 6, 5-Amino-3-[4-[[(2-methoxybenzoyl)amino]methyl]phenyl]-1-[5-(trifluoromethyl)-2-pyridyl]pyrazole-4-carboxamide] |
| 100 to 1000 nM | < 10 nM | 1 to 10 µM | < 10 nM | COc1ccccc1C(=O)NCc1ccc(-c2nn(C3CC3)c(N)c2C(N)=O)cc1 [Example 29, 5-Amino-1-cyclopropyl-3-[4-[[(2-methoxybenzoyl)amino]methyl]phenyl]pyrazole-4-carboxamide] |
| 100 to 1000 nM | 10 to 100 nM | 1 to 10 µM | 10 to 100 nM | COc1ccccc1C(=O)NCc1ccc(-c2nn(C3CCCC3)c(C)c2C(N)=O)cc1 [Example 24, 1-Cyclopentyl-3-[4-[[(2-methoxybenzoyl)amino]methyl]phenyl]-5-methyl-pyrazole-4-carboxamide] |
| 10 to 100 nM | < 10 nM | 1 to 10 µM | < 10 nM | COc1ccc(F)cc1C(=O)NCc1ccc(-c2nn(C3COCC3(F)F)c(N)c2C(N)=O)cc1 (centres unmarked) [Example 200, 5-amino-1-(4,4-difluorotetrahydrofuran-3-yl)-3-[4-[[(5-fluoro-2-methoxy-benzoyl)amino]methyl]phenyl]pyrazole-4-carboxamide] |
| 10 to 100 nM | < 10 nM | 1 to 10 µM | < 10 nM | COc1ccc(F)cc1C(=O)NCc1ccc(-c2nn(C3CCCC3)c(N)c2C(N)=O)c(F)c1 [Example 136, 5-amino-1-cyclopentyl-3-[2-fluoro-4-[[(5-fluoro-2-methoxy-benzoyl)amino]methyl]phenyl]pyrazole-4-carboxamide] |
| 100 to 1000 nM | < 10 nM | 1 to 10 µM | < 10 nM | COc1ccccc1C(=O)NCc1cc(F)c(-c2nn(C3CCCOC3)c(N)c2C(N)=O)cc1F (centres unmarked) [Example 151, 5-amino-3-[2,5-difluoro-4-[[(2-methoxybenzoyl)amino]methyl]phenyl]-1-tetrahydropyran-3-yl-pyrazole-4-carboxamide] |
| 10 to 100 nM | < 10 nM | > 10 µM | < 10 nM | COc1ccc(C)cc1C(=O)NCc1ccc(-c2nn(C3CCCC3)c(N)c2C(N)=O)cc1F [Example 92, 5-amino-1-cyclopentyl-3-[3-fluoro-4-[[(2-methoxy-5-methyl-benzoyl)amino]methyl]phenyl]pyrazole-4-carboxamide] |
| 10 to 100 nM | < 10 nM | 1 to 10 µM | < 10 nM | CCC(C)n1nc(-c2ccc(CNC(=O)c3ccccc3OC)cc2)c(C(N)=O)c1N (centres unmarked) [Example 150, 5-amino-3-[4-[[(2-methoxybenzoyl)amino]methyl]phenyl]-1-sec-butyl-pyrazole-4-carboxamide] |
| 100 to 1000 nM | < 10 nM | 1 to 10 µM | < 10 nM | COc1ccccc1C(=O)NCc1ccc(-c2nn(-c3ccc(F)c(F)c3)c(N)c2C(N)=O)cc1 [Example 98, 5-amino-1-(3,4-difluorophenyl)-3-[4-[[(2-methoxybenzoyl)amino]methyl]phenyl]pyrazole-4-carboxamide] |
